# Where two headings read alike, the source gives them in different places.
# System: human umbilical vein endothelial cells (HUVEC)
# Assay: HUVEC proliferation assay
# Assay type: cell-based
# Details: for inhibition at 0.15 µM / inhibition at 0.05 µM / inhibition at 0.01 µM / inhibition at 0.001 µM: Homo sapiens, HUVEC; for inhibition at 0.05 µM: 50 nM; for inhibition at 0.01 µM: 10 nM; for inhibition at 0.001 µM: 1 nM
# In short: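 Exponentially growing HUVEC were serum-starved 24 h (F12K + 1% FBS), pre-treated 1 h with compound (0.1% DMSO final), then stimulated with 6 ng/ml VEGF. Proliferation was read 72 h later by MTT reduction (A595). IC50 came from seven 0.5-log concentrations in triplicate; screens gave % inhibition relative to VEGF-only and starved wells.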
# [1] = Table I screening results, 150 nM, crude combinatorial amide library
# [2] = Inhibition of HUVEC Proliferation, crude combinatorial urea library, read-out: % inhibition @ 50 nM
# [3] = crude combinatorial urea library, read-out: Inhibition of HUVEC Proliferation % inhibition @ 10 nM
# [4] = crude combinatorial urea library, read-out: Inhibition of HUVEC Proliferation % inhibition @ 50 nM
# [5] = Inhibition of HUVEC Proliferation, crude combinatorial urea library, read-out: Inhibition @ 50 nM
# [6] = table following Table II (untitled), crude combinatorial library
# [7] = table following Table II (untitled), crude combinatorial library, read-out: % inhibition @ 10 nM
# [8] = Table II screening results, crude combinatorial amide library
# [9] = Table II screening results, crude combinatorial amide library, read-out: % inhibition @ 10 nM
smiles,measurement,setting,value
COc1cc(Nc2nc(N)c(-c3nc(-c4cccc(NC(=O)Cc5cccc(C)c5)c4)cs3)s2)cc(OC)c1OC,inhibition at 0.15 µM,[1],75%
COc1cccc(C(=O)Nc2cc(-c3csc(-c4sc(NC(=O)NCCCN5CCCC5=O)nc4N)n3)c(F)cc2F)c1 [drawing 675],inhibition at 0.05 µM,[2],105%
COc1cc(Nc2nc(N)c(-c3nc(-c4cccc(NC(=O)c5nn(-c6ccccc6)nc5C)c4)cs3)s2)cc(OC)c1OC,inhibition at 0.15 µM,[1],0%
COc1cccc(C(=O)Nc2cc(-c3csc(-c4sc(NC(=O)NCCN5CCCCC5)nc4N)n3)c(F)cc2F)c1,inhibition at 0.05 µM,[2],74%
COCC(C)NC(=O)Nc1nc(N)c(-c2nc(-c3cccc(NC(=O)c4cccc(OC)c4)c3)cs2)s1 (stereo not shown),inhibition at 0.01 µM,[3],8%
same,inhibition at 0.05 µM,[4],42%
COc1cccc(C(=O)Nc2cc(-c3noc(-c4sc(NC(=O)NCP(=O)(O)O)nc4N)n3)c(F)cc2F)c1,inhibition at 0.05 µM,[5],4%
COc1cc(Nc2nc(N)c(-c3nc(-c4cc(NC(=O)C5=CCCN(C)C5)ccc4C)no3)s2)cc(OC)c1OC,inhibition at 0.001 µM,[6],5%
same,inhibition at 0.01 µM,[7],1%
CCN1CC(NC(=O)Nc2nc(N)c(-c3nc(-c4cc(NC(=O)c5cccc(OC)c5)c(F)cc4F)no3)s2)CN1CC,inhibition at 0.05 µM,[5],92%
COc1cc(Nc2nc(N)c(-c3nc(-c4cccc(NC(=O)/C=C/c5c[nH]cn5)c4)cs3)s2)cc(OC)c1OC,inhibition at 0.15 µM,[1],2%
COc1cccc(C(=O)Nc2cccc(-c3csc(-c4sc(NC(=O)NCCCn5ccnc5)nc4N)n3)c2)c1,inhibition at 0.01 µM,[3],9%
same,inhibition at 0.05 µM,[4],39%
COc1cccc(C(=O)Nc2cccc(-c3csc(-c4sc(NC(=O)NC(CO)CO)nc4N)n3)c2)c1,inhibition at 0.01 µM,[3],-17%
same,inhibition at 0.05 µM,[4],52%
CCc1ccc(-c2ccc(C(=O)Nc3cccc(-c4csc(-c5sc(Nc6cc(OC)c(OC)c(OC)c6)nc5N)n4)c3)cc2)cc1,inhibition at 0.15 µM,[1],-7%
COc1cc(Nc2nc(N)c(-c3nc(-c4cccc(NC(=O)CCc5ccccc5Cl)c4)cs3)s2)cc(OC)c1OC,% inhibition @ 150 nM,[1],0%
COc1cccc(C(=O)Nc2cc(-c3csc(-c4sc(NC(=O)NCCCCN(C)C)nc4N)n3)c(F)cc2F)c1,inhibition at 0.05 µM,[2],30%
CCc1ccccc1C(=O)Nc1ccc(C)c(-c2noc(-c3sc(Nc4cc(OC)c(OC)c(OC)c4)nc3N)n2)c1,inhibition at 0.001 µM,[6],-26%
same,inhibition at 0.01 µM,[7],59%
COc1cccc(C(=O)Nc2cccc(-c3csc(-c4sc(NC(=O)NC(C)CN(C)C)nc4N)n3)c2)c1 (stereo not shown),inhibition at 0.01 µM,[3],12%
same,inhibition at 0.05 µM,[4],28%
CCc1ccccc1C(=O)Nc1cccc(-c2csc(-c3sc(NC(=O)NC)nc3N)n2)c1,inhibition at 0.001 µM,[8],0%
same,inhibition at 0.01 µM,[9],106%
COc1cccc(C(=O)Nc2cccc(-c3csc(-c4sc(NC(=O)NCCCN5CCCC5=O)nc4N)n3)c2)c1,inhibition at 0.01 µM,[3],28%
same,inhibition at 0.05 µM,[4],123%
COc1cccc(C(=O)Nc2cc(-c3csc(-c4sc(NC(=O)NCc5ccc(S(N)(=O)=O)cc5)nc4N)n3)c(F)cc2F)c1,inhibition at 0.05 µM,[2],77%
COc1cc(Nc2nc(N)c(-c3nc(-c4cc(NC(=O)C[C@@H]5OC(C)(C)OC5=O)ccc4C)no3)s2)cc(OC)c1OC,inhibition at 0.001 µM,[6],-2%
same,inhibition at 0.01 µM,[7],3%
COc1cc(Nc2nc(N)c(-c3nc(-c4cccc(NC(=O)C5CCCC5)c4)cs3)s2)cc(OC)c1OC,inhibition at 0.15 µM,[1],12%
COc1cccc(C(=O)Nc2cccc(-c3csc(-c4sc(NC(=O)NCc5cccnc5)nc4N)n3)c2)c1,inhibition at 0.01 µM,[3],3%
same,inhibition at 0.05 µM,[4],105%
COc1cccc(C(=O)Nc2cc(-c3noc(-c4sc(NC(=O)NC5CC(C)(C)NC(C)(C)C5)nc4N)n3)c(F)cc2F)c1,inhibition at 0.05 µM,[5],99%
COc1cccc(C(=O)Nc2cc(-c3csc(-c4sc(NC(=O)NCCc5ccncc5)nc4N)n3)c(F)cc2F)c1 [drawing 753],inhibition at 0.05 µM,[2],98%
COc1cc(Nc2nc(N)c(-c3nc(-c4cc(NC(=O)C[C@H](C)c5ccccc5)ccc4C)no3)s2)cc(OC)c1OC,inhibition at 0.001 µM,[6],-30%
same,inhibition at 0.01 µM,[7],24%
COc1cc(Nc2nc(N)c(-c3nc(-c4cccc(NC(=O)/C=C/c5c[nH]c6ccccc56)c4)cs3)s2)cc(OC)c1OC,inhibition at 0.15 µM,[1],5%
CCO/C(C)=C/C(=O)Nc1ccc(C)c(-c2noc(-c3sc(Nc4cc(OC)c(OC)c(OC)c4)nc3N)n2)c1,inhibition at 0.001 µM,[6],21%
same,inhibition at 0.01 µM,[7],78%
CNC(=O)Nc1nc(N)c(-c2nc(-c3cccc(NC(=O)c4cc(=O)[nH]c(=O)[nH]4)c3)cs2)s1,inhibition at 0.001 µM,[8],-5%
same,inhibition at 0.01 µM,[9],-14%
CCNc1ccccc1C(=O)Nc1ccc(C)c(-c2noc(-c3sc(Nc4cc(OC)c(OC)c(OC)c4)nc3N)n2)c1,inhibition at 0.001 µM,[6],-21%
same,inhibition at 0.01 µM,[7],18%
